Publication PMC10176470, “Engaging a Non-catalytic Cysteine Residue Drives Potent and Selective Inhibition of Caspase-6” (Journal of the American Chemical Society, 2023)

Key:
Test in all cases: SILAC proteomics / in-gel fluorescence, competition of probe 13-t labeling by 3a
[1] = biological target: T1, proteins of HEK293T cells transiently overexpressing caspase-6 (Homo sapiens, UniProt O00410)
T1 sequence (O00410 1-1097): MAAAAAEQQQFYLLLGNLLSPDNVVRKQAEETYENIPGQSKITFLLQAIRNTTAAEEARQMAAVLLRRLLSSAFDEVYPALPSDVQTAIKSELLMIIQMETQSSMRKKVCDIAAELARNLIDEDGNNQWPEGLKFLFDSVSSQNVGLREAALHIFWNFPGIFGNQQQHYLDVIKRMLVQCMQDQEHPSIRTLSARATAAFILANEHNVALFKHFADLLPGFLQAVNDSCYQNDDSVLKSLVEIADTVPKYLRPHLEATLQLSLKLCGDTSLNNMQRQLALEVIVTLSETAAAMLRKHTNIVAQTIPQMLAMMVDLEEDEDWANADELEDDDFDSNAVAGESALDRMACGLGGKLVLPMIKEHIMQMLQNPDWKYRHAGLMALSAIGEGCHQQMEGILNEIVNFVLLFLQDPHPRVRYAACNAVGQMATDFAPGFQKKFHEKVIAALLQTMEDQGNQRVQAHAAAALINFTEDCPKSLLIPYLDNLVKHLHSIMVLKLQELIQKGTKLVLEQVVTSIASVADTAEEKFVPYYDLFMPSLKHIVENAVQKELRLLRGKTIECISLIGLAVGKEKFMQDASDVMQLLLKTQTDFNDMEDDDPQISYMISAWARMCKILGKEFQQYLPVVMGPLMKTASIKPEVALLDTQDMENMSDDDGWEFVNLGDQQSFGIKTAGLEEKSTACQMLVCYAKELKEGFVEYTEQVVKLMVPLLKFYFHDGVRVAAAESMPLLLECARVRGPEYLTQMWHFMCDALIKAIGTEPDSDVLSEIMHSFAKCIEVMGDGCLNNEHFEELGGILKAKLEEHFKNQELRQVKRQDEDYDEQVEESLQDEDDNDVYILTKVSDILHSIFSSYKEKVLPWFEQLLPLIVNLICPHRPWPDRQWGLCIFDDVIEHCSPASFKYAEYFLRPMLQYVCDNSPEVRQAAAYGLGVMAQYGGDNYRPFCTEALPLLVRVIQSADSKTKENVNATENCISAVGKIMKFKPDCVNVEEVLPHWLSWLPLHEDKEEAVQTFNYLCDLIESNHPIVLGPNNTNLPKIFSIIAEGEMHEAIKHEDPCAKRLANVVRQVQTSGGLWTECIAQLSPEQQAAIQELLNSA
Description: (§1) Cells were lysed, and heavy and light SILAC lysates were combined in a 1:1 ratio and subjected to CuAAC reaction with azido-biotin to biotinylate probe-labeled proteins for subsequent capture on streptavidin-coated beads. Bead-bound proteins were split for analysis by in-gel fluorescence and tryptic digestion on-bead for LC–MS/MS analysis.
(§2) SILAC labeling and alkyne probe treatment: HEK293T cells were seeded into 8x 15 cm plates at
(§3) a density of 500,000 cells/plate. 4 of these plates were grown in light SILAC DMEM and 4 were
(§4) grown in heavy SILAC DMEM all containing 10% FBS and 4.5g/L glucose. The next day, all 8
(§5) plates were transfected with a pCMV6-Entry plasmid coding for caspase-6-myc-DDK lacking the
(§6) prodomain. After 24 hours, media was replaced with fresh SILAC growth media containing 4.5 g/L
(§7) glucose and 3% FBS. 24 hours later the plates were treated with probe and inhibitor for 1 hours as
(§8) follows: 2 of the light plates were treated with vehicle, 2 light plates and 2 heavy plates treated with
(§9) for 60 minutes. After treatment, media was removed, and cells were washed with 15 mL PBS for 5
(§10) minutes. Cells were then harvested by scraping in cold PBS and lysed in the presence of Roche
(§11) complete protease inhibitors. Lysates were clarified by centrifugation at 10,000xg for 10 minutes and
(§12) the protein in the supernatant was quantified by BCA assay.
(§13) Proteomics assay: 1 mg of each lysate was diluted to 2mg/ml in PBS with Roche complete protease
(§14) inhibitors. To this was added 0.1 mM biotin-azide, 1 mM tris(2-carboxyethyl)phosphine (TCEP), 0.1
(§15) mM Tris((1-benzyl-4-triazolyl)methyl)amine (TBTA) ligand, and 1 mM CuSO4 in a final volume of
(§16) 0.5 mL. The reaction was incubated at room temperature for 1 hour and was vortexed every 15
(§17) minutes. After 1 hour, proteins are precipitated and are pelleted by centrifuging at 16,000xg for 4
(§18) min at 4 °C. The supernatants were discarded, and the pellets were solubilized with 0.5 mL cold
(§19) The cold methanol wash was then repeated, and the washed
(§20) pellets were resuspended in 1 mL of 1.2% SDS and sonicated until clear. The samples were heat
(§21) denatured at 80-90 °C for 5 minutes and any insoluble particles were removed by centrifugation at
(§22) 6,500xg for 5 minutes. The 1 mL supernatant was transferred to a 15 mL conical tubes containing 5
(§23) mL of PBS and 150 µL of washed neutravidin beads were added. The samples were incubated for 2
(§24) hours at 4 °C while rotating, at which point the samples were warmed to resolubilize any precipitated
(§25) SDS. The beads were pelleted by centrifugation at 1400xg for 3 min and washed for 10 minutes with
(§26) the following solutions: 2x 1% NP-40, 2x PBS + 1 M NaCl, and 2x 50 mM ammonium bicarbonate
(§27) (ABC) + 2 M urea. The beads were then transferred to a 1.5 mL microcentrifuge tube using 2x250
(§28) µL 100 mM Tris pH 8.0 + 4 M Guanidium hydrochloride (final volume 500 µL).

[2] = biological target: proteins of HEK293T cells transiently overexpressing caspase-6 (Homo sapiens, UniProt P26641); settings: Comp; protein EEF1G P26641
Chain of proteins of HEK293T cells transiently overexpressing caspase-6 (Homo sapiens, UniProt P26641) (P26641 whole entry): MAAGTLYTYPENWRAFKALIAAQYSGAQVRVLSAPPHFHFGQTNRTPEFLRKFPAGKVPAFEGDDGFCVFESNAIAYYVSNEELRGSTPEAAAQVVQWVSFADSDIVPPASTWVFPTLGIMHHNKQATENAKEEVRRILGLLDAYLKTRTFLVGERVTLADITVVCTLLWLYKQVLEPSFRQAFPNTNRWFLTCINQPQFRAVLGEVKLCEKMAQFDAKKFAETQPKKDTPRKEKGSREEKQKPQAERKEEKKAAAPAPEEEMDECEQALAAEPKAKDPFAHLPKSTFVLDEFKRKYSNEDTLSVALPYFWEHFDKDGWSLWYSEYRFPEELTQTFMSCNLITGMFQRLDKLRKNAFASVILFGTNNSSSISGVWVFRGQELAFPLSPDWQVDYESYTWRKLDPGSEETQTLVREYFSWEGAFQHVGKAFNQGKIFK
Description: as §1, §2, §3, §4, §5, §6, §7, §8, §9, §10, §11, §12, §13, §14, §15, §16, §17, §18, §19, §20, §21, §22, §23, §24, §25, §26, §27, §28

[3] = biological target: proteins of HEK293T cells transiently overexpressing caspase-6 (Homo sapiens, UniProt P33992); settings: Comp; protein MCM5 P33992
Chain of proteins of HEK293T cells transiently overexpressing caspase-6 (Homo sapiens, UniProt P33992) (P33992 whole entry): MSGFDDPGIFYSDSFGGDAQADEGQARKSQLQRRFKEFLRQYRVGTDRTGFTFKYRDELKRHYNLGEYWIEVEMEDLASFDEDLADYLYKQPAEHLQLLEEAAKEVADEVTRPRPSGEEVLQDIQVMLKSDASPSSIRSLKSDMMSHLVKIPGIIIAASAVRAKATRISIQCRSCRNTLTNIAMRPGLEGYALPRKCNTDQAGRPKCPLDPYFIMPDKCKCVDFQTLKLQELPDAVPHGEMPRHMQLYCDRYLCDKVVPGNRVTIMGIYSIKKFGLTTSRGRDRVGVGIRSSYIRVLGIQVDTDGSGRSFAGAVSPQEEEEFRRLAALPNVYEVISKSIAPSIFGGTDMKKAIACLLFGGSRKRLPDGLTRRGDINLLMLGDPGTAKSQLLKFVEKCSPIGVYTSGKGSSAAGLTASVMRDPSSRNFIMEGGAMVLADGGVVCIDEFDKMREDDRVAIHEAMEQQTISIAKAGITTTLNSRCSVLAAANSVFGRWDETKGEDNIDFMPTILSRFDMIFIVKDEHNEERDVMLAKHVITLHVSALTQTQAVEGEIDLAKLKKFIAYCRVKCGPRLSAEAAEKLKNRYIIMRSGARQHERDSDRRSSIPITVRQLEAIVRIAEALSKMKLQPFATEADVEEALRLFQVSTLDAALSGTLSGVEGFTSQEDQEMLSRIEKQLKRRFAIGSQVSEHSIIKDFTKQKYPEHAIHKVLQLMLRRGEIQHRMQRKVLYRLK
Description: as §1, §2, §3, §4, §5, §6, §7, §8, §9, §10, §11, §12, §13, §14, §15, §16, §17, §18, §19, §20, §21, §22, §23, §24, §25, §26, §27, §28

[4] = biological target: proteins of HEK293T cells transiently overexpressing caspase-6 (Homo sapiens, UniProt P40939); settings: Comp; protein HADHA P40939
Chain of proteins of HEK293T cells transiently overexpressing caspase-6 (Homo sapiens, UniProt P40939) (P40939 37-763): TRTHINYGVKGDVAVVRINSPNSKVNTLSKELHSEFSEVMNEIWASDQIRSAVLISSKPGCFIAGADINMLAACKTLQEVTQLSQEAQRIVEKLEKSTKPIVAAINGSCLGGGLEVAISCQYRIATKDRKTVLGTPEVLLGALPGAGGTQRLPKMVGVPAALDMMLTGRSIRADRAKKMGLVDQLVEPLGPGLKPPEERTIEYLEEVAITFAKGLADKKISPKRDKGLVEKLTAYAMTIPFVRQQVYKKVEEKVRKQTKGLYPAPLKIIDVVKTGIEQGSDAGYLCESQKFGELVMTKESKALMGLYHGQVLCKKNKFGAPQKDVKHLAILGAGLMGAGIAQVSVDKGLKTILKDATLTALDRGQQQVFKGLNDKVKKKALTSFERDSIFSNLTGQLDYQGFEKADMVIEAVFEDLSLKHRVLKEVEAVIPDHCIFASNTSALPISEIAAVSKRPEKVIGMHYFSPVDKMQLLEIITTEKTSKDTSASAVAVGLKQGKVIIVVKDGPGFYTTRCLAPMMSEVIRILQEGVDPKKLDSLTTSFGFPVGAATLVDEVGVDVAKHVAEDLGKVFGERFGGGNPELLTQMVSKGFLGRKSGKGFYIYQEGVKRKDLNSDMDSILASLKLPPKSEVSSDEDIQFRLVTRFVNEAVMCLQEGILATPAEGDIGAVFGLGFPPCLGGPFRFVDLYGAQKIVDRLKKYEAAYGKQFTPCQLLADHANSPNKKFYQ
Description: as §1, §2, §3, §4, §5, §6, §7, §8, §9, §10, §11, §12, §13, §14, §15, §16, §17, §18, §19, §20, §21, §22, §23, §24, §25, §26, §27, §28

[5] = biological target: proteins of HEK293T cells transiently overexpressing caspase-6 (Homo sapiens, UniProt P55884); settings: Comp; protein EIF3B P55884
Chain of proteins of HEK293T cells transiently overexpressing caspase-6 (Homo sapiens, UniProt P55884) (P55884 whole entry): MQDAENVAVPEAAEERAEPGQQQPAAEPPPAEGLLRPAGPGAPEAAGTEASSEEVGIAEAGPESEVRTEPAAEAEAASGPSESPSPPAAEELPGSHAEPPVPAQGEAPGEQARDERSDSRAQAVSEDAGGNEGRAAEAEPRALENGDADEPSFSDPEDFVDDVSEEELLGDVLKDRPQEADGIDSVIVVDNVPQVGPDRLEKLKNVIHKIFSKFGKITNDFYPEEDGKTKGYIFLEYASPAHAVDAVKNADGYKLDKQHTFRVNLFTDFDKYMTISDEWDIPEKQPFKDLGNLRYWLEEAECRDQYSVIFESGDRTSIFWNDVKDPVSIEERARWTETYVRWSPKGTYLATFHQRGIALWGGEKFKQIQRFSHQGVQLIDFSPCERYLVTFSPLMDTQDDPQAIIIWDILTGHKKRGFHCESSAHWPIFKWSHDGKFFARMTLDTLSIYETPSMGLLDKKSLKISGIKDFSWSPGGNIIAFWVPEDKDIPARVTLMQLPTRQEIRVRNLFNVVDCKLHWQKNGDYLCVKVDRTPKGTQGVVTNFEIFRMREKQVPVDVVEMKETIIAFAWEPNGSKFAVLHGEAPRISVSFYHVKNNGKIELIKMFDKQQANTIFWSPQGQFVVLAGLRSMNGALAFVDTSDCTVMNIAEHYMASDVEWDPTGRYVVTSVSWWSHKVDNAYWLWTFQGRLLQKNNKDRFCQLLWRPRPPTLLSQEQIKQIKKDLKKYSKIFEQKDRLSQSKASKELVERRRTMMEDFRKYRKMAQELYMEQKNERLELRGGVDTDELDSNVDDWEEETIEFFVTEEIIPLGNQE
Description: as §1, §2, §3, §4, §5, §6, §7, §8, §9, §10, §11, §12, §13, §14, §15, §16, §17, §18, §19, §20, §21, §22, §23, §24, §25, §26, §27, §28

[6] = biological target: proteins of HEK293T cells transiently overexpressing caspase-6 (Homo sapiens, UniProt Q00839); settings: Comp; protein HNRNPU Q00839
Chain of proteins of HEK293T cells transiently overexpressing caspase-6 (Homo sapiens, UniProt Q00839) (Q00839 whole entry): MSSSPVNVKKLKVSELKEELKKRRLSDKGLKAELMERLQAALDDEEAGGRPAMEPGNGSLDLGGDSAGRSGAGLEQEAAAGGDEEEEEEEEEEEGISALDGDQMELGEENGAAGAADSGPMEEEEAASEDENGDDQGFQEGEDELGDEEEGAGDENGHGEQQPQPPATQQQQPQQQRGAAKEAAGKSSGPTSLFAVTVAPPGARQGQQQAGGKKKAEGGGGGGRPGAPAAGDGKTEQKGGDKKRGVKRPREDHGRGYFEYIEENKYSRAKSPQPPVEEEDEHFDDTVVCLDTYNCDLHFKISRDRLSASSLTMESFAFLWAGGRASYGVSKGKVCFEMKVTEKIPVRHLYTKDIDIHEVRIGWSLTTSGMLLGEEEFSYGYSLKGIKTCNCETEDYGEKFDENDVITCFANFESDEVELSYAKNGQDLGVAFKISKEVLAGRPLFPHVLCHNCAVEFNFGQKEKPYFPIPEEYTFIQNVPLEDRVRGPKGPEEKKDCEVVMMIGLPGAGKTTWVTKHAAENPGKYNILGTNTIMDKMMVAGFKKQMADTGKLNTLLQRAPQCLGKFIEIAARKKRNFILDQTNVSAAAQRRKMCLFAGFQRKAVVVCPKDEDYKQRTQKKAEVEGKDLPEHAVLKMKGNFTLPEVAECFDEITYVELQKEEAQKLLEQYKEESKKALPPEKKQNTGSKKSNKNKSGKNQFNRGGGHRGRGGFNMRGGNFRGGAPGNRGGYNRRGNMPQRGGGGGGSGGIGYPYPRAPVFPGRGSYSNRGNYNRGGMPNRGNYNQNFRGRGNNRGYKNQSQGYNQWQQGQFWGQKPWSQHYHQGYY
Description: as §1, §2, §3, §4, §5, §6, §7, §8, §9, §10, §11, §12, §13, §14, §15, §16, §17, §18, §19, §20, §21, §22, §23, §24, §25, §26, §27, §28

[7] = biological target: T2, proteins of HEK293T cells transiently overexpressing caspase-6 (Homo sapiens, UniProt Q8WUM4)
T2 sequence (Q8WUM4 1-868): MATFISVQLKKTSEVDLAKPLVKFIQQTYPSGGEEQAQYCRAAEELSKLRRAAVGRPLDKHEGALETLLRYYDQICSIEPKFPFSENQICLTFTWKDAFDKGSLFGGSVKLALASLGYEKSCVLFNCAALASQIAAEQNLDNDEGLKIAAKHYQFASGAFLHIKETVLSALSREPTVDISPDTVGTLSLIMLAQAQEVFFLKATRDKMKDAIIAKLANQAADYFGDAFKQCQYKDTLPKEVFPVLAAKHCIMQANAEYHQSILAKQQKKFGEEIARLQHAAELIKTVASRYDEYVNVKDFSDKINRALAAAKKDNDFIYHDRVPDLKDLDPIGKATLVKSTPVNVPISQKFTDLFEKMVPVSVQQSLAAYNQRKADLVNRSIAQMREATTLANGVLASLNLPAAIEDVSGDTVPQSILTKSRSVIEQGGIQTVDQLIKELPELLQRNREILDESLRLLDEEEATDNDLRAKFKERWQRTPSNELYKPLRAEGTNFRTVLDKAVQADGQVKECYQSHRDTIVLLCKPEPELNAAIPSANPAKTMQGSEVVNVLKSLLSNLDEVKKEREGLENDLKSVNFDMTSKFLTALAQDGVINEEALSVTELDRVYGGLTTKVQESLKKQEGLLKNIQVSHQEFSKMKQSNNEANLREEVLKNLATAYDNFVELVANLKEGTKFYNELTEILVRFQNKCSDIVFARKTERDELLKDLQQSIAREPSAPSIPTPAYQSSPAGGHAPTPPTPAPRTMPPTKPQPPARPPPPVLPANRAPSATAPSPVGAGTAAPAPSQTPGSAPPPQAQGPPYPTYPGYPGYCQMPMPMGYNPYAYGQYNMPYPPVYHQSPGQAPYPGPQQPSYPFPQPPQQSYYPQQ
Description: as §1, §2, §3, §4, §5, §6, §7, §8, §9, §10, §11, §12, §13, §14, §15, §16, §17, §18, §19, §20, §21, §22, §23, §24, §25, §26, §27, §28

[8] = biological target: proteins of HEK293T cells transiently overexpressing caspase-6 (Homo sapiens, UniProt Q9Y262)
Chain of proteins of HEK293T cells transiently overexpressing caspase-6 (Homo sapiens, UniProt Q9Y262) (Q9Y262 whole entry): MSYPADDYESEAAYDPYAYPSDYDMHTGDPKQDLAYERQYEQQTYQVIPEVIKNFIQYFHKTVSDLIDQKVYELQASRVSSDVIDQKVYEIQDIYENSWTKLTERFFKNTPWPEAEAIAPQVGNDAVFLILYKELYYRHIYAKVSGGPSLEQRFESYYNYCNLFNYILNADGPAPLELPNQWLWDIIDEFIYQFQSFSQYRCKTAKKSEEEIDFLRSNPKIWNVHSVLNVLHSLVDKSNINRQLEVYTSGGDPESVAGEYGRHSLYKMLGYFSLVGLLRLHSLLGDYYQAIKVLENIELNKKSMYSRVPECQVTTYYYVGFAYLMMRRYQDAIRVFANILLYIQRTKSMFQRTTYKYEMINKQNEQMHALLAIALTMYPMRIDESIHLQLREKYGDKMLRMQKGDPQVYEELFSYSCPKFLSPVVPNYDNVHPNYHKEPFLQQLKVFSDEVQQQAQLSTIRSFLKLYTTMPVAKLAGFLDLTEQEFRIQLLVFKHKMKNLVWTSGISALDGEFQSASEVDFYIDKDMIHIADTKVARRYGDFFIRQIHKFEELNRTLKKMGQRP
Description: as §1, §2, §3, §4, §5, §6, §7, §8, §9, §10, §11, §12, §13, §14, §15, §16, §17, §18, §19, §20, §21, §22, §23, §24, §25, §26, §27, §28

[9] = protein IPO5 (O00410), Exp Comp, analysis C6, p 0.0039, 9 peptides
[10] = protein PDCD6IP (Q8WUM4), Exp Comp, analysis C6, p 0.5000, 2 peptides
[11] = protein EIF3L (Q9Y262), Exp Comp, analysis C6, p 0.8438, 6 peptides

**Q.** For `C=CS(=O)(=O)N1C[C@H](C(=O)Nc2ccc(OC(F)(F)F)cc2)C[C@@H](c2ccccc2)C1` [3a], which enrich.exp.med ([1]; Comp, protein IPO5 O00410) is on record?
**A.** Its enrich.exp.med is 1.

**Q.** What about the enrich.exp.med.lin [1, 9] of the same compound?
**A.** Its enrich.exp.med.lin is 2.

**Q.** What about the enrich.exp.med.log2 [1, 9] of the same compound?
**A.** Its enrich.exp.med.log2 is 1.

**Q.** And the enrich.exp.med [2]?
**A.** The enrich.exp.med was 0.7548.

**Q.** And the enrich.exp.med [3]?
**A.** The enrich.exp.med was 0.8256.

**Q.** And the enrich.exp.med [4]?
**A.** Its enrich.exp.med is 0.6753.

**Q.** And the enrich.exp.med [5]?
**A.** The enrich.exp.med was 0.6413.

**Q.** And the enrich.exp.med [6]?
**A.** Its enrich.exp.med is 0.6324.

**Q.** And the enrich.exp.med ([7]; Comp, protein PDCD6IP Q8WUM4)?
**A.** Its enrich.exp.med is 1.

**Q.** What about the enrich.exp.med.lin [7, 10] of the same compound?
**A.** The enrich.exp.med.lin was 2.

**Q.** And the enrich.exp.med.log2 [7, 10]?
**A.** Its enrich.exp.med.log2 is 1.

**Q.** And the enrich.exp.med ([8]; Comp, protein EIF3L Q9Y262)?
**A.** Its enrich.exp.med is 1.059.

**Q.** And the enrich.exp.med.lin [8, 11]?
**A.** Its enrich.exp.med.lin is 2.083.

**Q.** What about the enrich.exp.med.log2 [8, 11] of the same compound?
**A.** Its enrich.exp.med.log2 is 1.059.
